{"source": "ChEMBL document CHEMBL4393659", "about": "“Insights into the chemistry and therapeutic potential of furanones: A versatile pharmacophore” (Eur J Med Chem, 2019)", "key": {"Aspergillus fumigatus": {"tested_on": "Aspergillus fumigatus", "experiment": "Antifungal activity against Aspergillus fumigatus assessed as reduction in fungal cell viability measured after 24 and 48 hrs by broth microdilution method", "assay_type": "functional"}, "[1]": {"target": "GABA-A receptor; anion channel", "experiment": "Displacement of [35S]TBPS from GABAA (unknown origin) incubated for 90 mins by scintillation counting method", "assay_type": "protein-complex assay, Homo sapiens"}, "Mus musculus [2]": {"tested_on": "Mus musculus", "experiment": "Anticonvulsant activity in ip dosed CF-1 mouse assessed as protection against PTZ-induced seizures measured after 30 mins […]", "assay_type": "functional"}, "Rattus norvegicus [3]": {"tested_on": "Rattus norvegicus", "experiment": "Antiinflammatory activity in Wistar rat assessed as inhibition of carrageenan-induced edema measured upto 4 hrs", "assay_type": "functional"}, "Escherichia coli [4]": {"tested_on": "Escherichia coli", "experiment": "Antibacterial activity against Escherichia coli assessed as inhibition zone incubated for 24 hrs by disk diffusion method relative to control", "assay_type": "functional"}, "Mus musculus [5]": {"tested_on": "Mus musculus", "experiment": "Analgesic activity in Swiss albino mouse assessed as inhibition of acetic acid induced writhing at 20 mg/kg , po incubated for 3 hrs followed by acetic acid administered and observed for 5 to 15 mins relative to control", "assay_type": "functional"}, "Rattus norvegicus [6]": {"tested_on": "Rattus norvegicus", "experiment": "Antiinflammatory activity in Wistar albino rat assessed as inhibition of carrageenan-induced paw edema at 20 mg/kg , po incubated for 30 mins followed by carrageenan addition and measured after 3 hrs by plethysmometry relative to control", "assay_type": "functional"}, "Escherichia coli [7]": {"tested_on": "Escherichia coli", "experiment": "Antibacterial activity against Escherichia coli", "assay_type": "functional"}, "Staphylococcus aureus": {"tested_on": "Staphylococcus aureus", "experiment": "Antibacterial activity against Staphylococcus aureus", "assay_type": "functional"}, "Candida albicans": {"tested_on": "Candida albicans", "experiment": "Antifungal activity against Candida albicans ATCC 90028 assessed as reduction in fungal cell viability measured after 24 and 48 hrs by spectrophotometry", "assay_type": "functional"}, "Rattus norvegicus [8]": {"tested_on": "Rattus norvegicus", "experiment": "Antiinflammatory activity in Sprague-Dawley rat assessed as inhibition of carrageenan-induced paw edema at 3 mg/kg , po incubated for 1 hr followed by carrageenan addition and measured after 4 hrs relative to control", "assay_type": "functional"}, "Rattus norvegicus [9]": {"tested_on": "Rattus norvegicus", "experiment": "Antiinflammatory activity in Sprague-Dawley rat assessed as inhibition of carrageenan-induced paw edema at 3 mg/kg , po relative to control", "assay_type": "functional"}, "Rattus norvegicus [10]": {"species_on_record": "Rattus norvegicus", "experiment": "Antiarthritic activity in adjuvant-induced Sprague-Dawley rat", "assay_type": "functional"}, "[11]": {"experiment": "Ulcerogenicity in Sprague-Dawley rat assessed as gastric lesions at 30 mg/kg , po measured after 4 hrs", "assay_type": "toxicity, organism-based", "details": "in vivo"}, "Salmonella typhimurium": {"tested_on": "Salmonella typhimurium", "experiment": "Inhibition of biofilm formation in Salmonella enterica subsp. enterica serovar Typhimurium 14028S incubated for 48 hrs by crystal violet staining based assay", "assay_type": "functional, organism-based"}, "[12]": {"target": "Prostaglandin G/H synthase 2 (Homo sapiens, UniProt P35354)", "sequence (P35354 whole entry)": "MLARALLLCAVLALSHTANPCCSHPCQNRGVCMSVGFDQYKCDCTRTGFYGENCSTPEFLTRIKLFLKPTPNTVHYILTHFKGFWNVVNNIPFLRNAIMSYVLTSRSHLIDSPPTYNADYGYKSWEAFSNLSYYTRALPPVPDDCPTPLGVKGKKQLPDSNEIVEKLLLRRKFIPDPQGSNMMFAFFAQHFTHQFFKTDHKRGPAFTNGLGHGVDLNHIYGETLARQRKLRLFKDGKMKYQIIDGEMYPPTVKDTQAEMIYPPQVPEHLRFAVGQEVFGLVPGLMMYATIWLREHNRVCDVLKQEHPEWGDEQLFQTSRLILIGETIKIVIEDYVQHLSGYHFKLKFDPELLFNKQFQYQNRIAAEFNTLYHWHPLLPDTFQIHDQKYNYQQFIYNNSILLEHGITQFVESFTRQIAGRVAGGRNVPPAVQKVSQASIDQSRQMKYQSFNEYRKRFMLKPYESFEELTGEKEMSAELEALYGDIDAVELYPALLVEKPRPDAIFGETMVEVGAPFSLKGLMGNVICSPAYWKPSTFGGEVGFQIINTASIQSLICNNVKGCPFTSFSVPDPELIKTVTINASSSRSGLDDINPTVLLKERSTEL", "experiment": "Inhibition of recombinant human COX2 expressed in baculovirus infected Sf9 cells"}, "Rattus norvegicus [13]": {"tested_on": "Rattus norvegicus", "experiment": "Antiinflammatory activity in po dosed rat", "assay_type": "functional"}, "Rattus norvegicus [14]": {"tested_on": "Rattus norvegicus", "experiment": "Antiinflammatory activity in albino rat assessed as inhibition of carrageenan-induced paw edema by measuring mercury displacement at 20 mg/kg , po relative to control", "assay_type": "functional"}, "Liver": {"tested_on": "Liver", "experiment": "Antioxidant activity in Wistar rat liver microsomes assessed as inhibition of AAPH-induced MDA production at 100 mM incubated for 15 mins", "assay_type": "functional", "details": "Microsome"}, "Plasmodium falciparum": {"tested_on": "Plasmodium falciparum", "experiment": "Antimalarial activity against Plasmodium falciparum infected in human blood assessed as reduction in cell viability incubated for 72 hrs by Giemsa stain based assay", "assay_type": "functional"}}}
{"smiles": "CC(C)(C)C(=O)OCC1C=C(c2ccc(Cl)c(Cl)c2)C(=O)O1", "note": "(centres undefined)", "values": [{"measurement": "MIC", "setting": "Aspergillus fumigatus", "value": 1.34, "unit": "µg/mL"}]}
{"smiles": "CCC1(C)CC(C)(C(F)(F)F)OC1=O", "note": "(centres undefined)", "values": [{"measurement": "IC50", "setting": "[1]", "value": 224, "unit": "µM"}, {"measurement": "CD50", "setting": "Mus musculus [2]", "value": 47, "unit": "mg/kg"}]}
{"smiles": "Cc1ccc2cc(/C=C3\\C=C(c4ccc(-c5ccccc5)cc4)OC3=O)c(Cl)nc2c1", "values": [{"measurement": "inhibition (INH)", "setting": "Rattus norvegicus [3]", "value": "56 - 63%"}]}
{"smiles": "O=C1OC(c2ccc(-c3ccccc3)cc2)=C/C1=C\\c1cc2ccccc2nc1Cl", "values": [{"measurement": "inhibition (INH)", "setting": "Rattus norvegicus [3]", "value": "56 - 63%"}]}
{"smiles": "COc1ccc(C2=C/C(=C/c3ccc(F)cc3)C(=O)O2)cc1", "values": [{"measurement": "inhibition zone (IZ)", "setting": "Escherichia coli [4]", "value": 14, "unit": "mm"}]}
{"smiles": "Cc1ccc2cc(/C=C3\\C=C(c4ccc5ccccc5c4)OC3=O)c(Cl)nc2c1", "values": [{"measurement": "inhibition (INH)", "setting": "Rattus norvegicus [3]", "value": "56 - 63%"}]}
{"smiles": "O=C1OC(c2ccc3ccccc3c2)=C/C1=C\\c1ccccc1[N+](=O)[O-]", "values": [{"measurement": "inhibition in vivo at 20 mg/kg", "setting": "Mus musculus [5]", "value": "70 to 74", "unit": "%"}, {"measurement": "inhibition in vivo at 20 mg/kg", "setting": "Rattus norvegicus [6]", "value": "74.8 to 89.7", "unit": "%"}]}
{"smiles": "O=C1C=C(c2ccc(Br)cc2)O/C1=N\\C12CC3CC(CC(C3)C1)C2", "values": [{"measurement": "MIC", "setting": "Escherichia coli [7]", "value": 31, "unit": "µg/mL"}]}
{"smiles": "C/C(C#N)=C1/OC(c2ccc(C)cc2)=C(Cl)C1=O", "values": [{"measurement": "MIC", "setting": "Staphylococcus aureus", "value": 15.6, "unit": "µg/mL"}, {"measurement": "MIC", "setting": "Escherichia coli [7]", "value": 62.5, "unit": "µg/mL"}]}
{"smiles": "COc1ccc(/C=C2\\C=C(c3ccc4ccccc4c3)OC2=O)cc1", "values": [{"measurement": "inhibition in vivo at 20 mg/kg", "setting": "Mus musculus [5]", "value": "70 to 74", "unit": "%"}, {"measurement": "inhibition in vivo at 20 mg/kg", "setting": "Rattus norvegicus [6]", "value": "74.8 to 89.7", "unit": "%"}]}
{"smiles": "CC(=O)OCC1C=C(c2cccc(Cl)c2)C(=O)O1", "note": "(centres undefined)", "values": [{"measurement": "MIC", "setting": "Candida albicans", "value": 1, "unit": "µg/mL"}]}
{"smiles": "COc1ccc(C2=C/C(=C/c3ccc(N(C)C)cc3)C(=O)O2)cc1", "values": [{"measurement": "inhibition zone (IZ)", "setting": "Escherichia coli [4]", "value": 16, "unit": "mm"}]}
{"smiles": "CC(=O)OCC1C=C(c2ccc(Cl)c(Cl)c2)C(=O)O1", "note": "(centres undefined)", "values": [{"measurement": "MIC", "setting": "Candida albicans", "value": 2, "unit": "µg/mL"}]}
{"smiles": "CC1COc2c(N3CCN(C)CC3)c(F)cc3c(=O)c(C(=O)O)cn1c23", "note": "(centres undefined) [OFLOXACIN]", "values": [{"measurement": "inhibition zone (IZ)", "setting": "Escherichia coli [4]", "value": 24, "unit": "mm"}]}
{"smiles": "CC1(C)OC(c2ccc(S(C)(=O)=O)cc2)=C(c2cc(F)cc(F)c2)C1=O", "values": [{"measurement": "inhibition in vivo at 3 mg/kg", "setting": "Rattus norvegicus [8]", "value": 34, "unit": "%"}, {"measurement": "inhibition in vivo at 3 mg/kg", "setting": "Rattus norvegicus [9]", "value": 34, "unit": "%"}, {"measurement": "ED50", "setting": "Rattus norvegicus [10]", "value": 0.03, "unit": "mg/kg/day"}, {"measurement": "UI", "setting": "[11]", "value": 1.8}]}
{"smiles": "COC(=O)C(Cl)C1(Cl)OC(c2ccc(Cl)cc2)=C(Cl)C1=O", "note": "(centres undefined)", "values": [{"measurement": "MIC", "setting": "Staphylococcus aureus", "value": 15.6, "unit": "µg/mL"}, {"measurement": "MIC", "setting": "Escherichia coli [7]", "value": 62.5, "unit": "µg/mL"}]}
{"smiles": "O=C1C=C(Br)/C(=C/Br)O1", "values": [{"measurement": "IC50", "setting": "Salmonella typhimurium", "value": 10, "unit": "µM"}]}
{"smiles": "CS(=O)(=O)c1ccc(C2=C3c4ccccc4CCC3OC2=O)cc1", "note": "(centres undefined)", "values": [{"measurement": "IC50", "setting": "[12]", "value": "0.5 to 0.6", "unit": "µM"}]}
{"smiles": "CC1(O)OC(=O)C(c2ccc(Cl)cc2)=C1c1ccc(S(C)(=O)=O)cc1", "note": "(centres undefined)", "values": [{"measurement": "ED50", "setting": "Rattus norvegicus [13]", "value": 1.4, "unit": "mg/kg"}]}
{"smiles": "O=C1OC(c2ccc3ccccc3c2)=C/C1=C\\c1ccc([N+](=O)[O-])cc1", "values": [{"measurement": "inhibition in vivo at 20 mg/kg", "setting": "Mus musculus [5]", "value": "70 to 74", "unit": "%"}, {"measurement": "inhibition in vivo at 20 mg/kg", "setting": "Rattus norvegicus [6]", "value": "74.8 to 89.7", "unit": "%"}]}
{"smiles": "O=C1C(Br)=C(c2ccccc2)O/C1=N\\C12CC3CC(CC(C3)C1)C2", "values": [{"measurement": "MIC", "setting": "Escherichia coli [7]", "value": 15.6, "unit": "µg/mL"}]}
{"smiles": "O=C1C=C/C(=C/Br)O1", "values": [{"measurement": "IC50", "setting": "Salmonella typhimurium", "value": 15, "unit": "µM"}]}
{"smiles": "COc1cc(/C=C2/C=C(c3ccc(C)cc3C)OC2=O)cc(OC)c1OC", "values": [{"measurement": "inhibition in vivo at 20 mg/kg", "setting": "Rattus norvegicus [14]", "value": 48.4, "unit": "%"}]}
{"smiles": "Cc1c(C)c2c(c(C)c1O)CCC(C)(CC1OC[C@@H]([C@H]3OC(=O)C(O)=C3O)O1)O2", "note": "(some centres undefined)", "values": [{"measurement": "inhibition", "setting": "Liver", "value": 100, "unit": "%"}]}
{"smiles": "O=C1OC(c2ccc3ccccc3c2)=C/C1=C\\c1cc2ccc(Cl)cc2nc1Cl", "values": [{"measurement": "inhibition (INH)", "setting": "Rattus norvegicus [3]", "value": "56 - 63%"}]}
{"smiles": "CC1(O)OC(=O)C(c2ccccc2)=C1c1ccc(S(C)(=O)=O)cc1", "note": "(centres undefined)", "values": [{"measurement": "ED50", "setting": "Rattus norvegicus [13]", "value": 1.5, "unit": "mg/kg"}]}
{"smiles": "COc1cccc2cc(/C=C3/CC(c4ccc(Cl)cc4)OC3=O)c(Cl)nc12", "note": "(centres undefined)", "values": [{"measurement": "MIC", "setting": "Plasmodium falciparum", "value": "0.5 to 0.72", "unit": "µg/mL"}]}
{"smiles": "Cc1ccc(-c2cc(C(F)(F)F)nn2-c2ccc(S(N)(=O)=O)cc2)cc1", "note": "[CELECOXIB]", "values": [{"measurement": "ED50", "setting": "Rattus norvegicus [10]", "value": 0.2, "unit": "mg/kg/day"}]}
{"smiles": "O=C1OC(c2ccc(-c3ccccc3)cc2)=C/C1=C\\c1cc2ccc(Cl)cc2nc1Cl", "values": [{"measurement": "inhibition (INH)", "setting": "Rattus norvegicus [3]", "value": "56 - 63%"}]}
{"smiles": "O=C1OC(c2ccc3ccccc3c2)=C/C1=C\\c1cc2ccccc2nc1Cl", "values": [{"measurement": "inhibition (INH)", "setting": "Rattus norvegicus [3]", "value": "56 - 63%"}]}
